In US9006250B2, “4-amino-6-(heterocyclic)picolinates and 6-amino-2-(heterocyclic)pyrimidine-4-carboxylates and their use as herbicides” (Dow AgroSciences, LLC, priority 2013, dated 2015):

What was measured:
Assay in all cases: Postemergence herbicidal activity in direct seeded rice
Format in all cases: in vivo
ORYSJ: Oryza sativa = tested on: ORYSJ: Oryza sativa
Text: (§1) Seeds or nutlets of the desired test plant species were planted in a soil matrix prepared by mixing a loam soil (43 percent silt, 19 percent clay, and 38 percent sand, with a pH of about 8.1 and an organic matter content of about 1.5 percent) and river sand in an 80 to 20 ratio. The soil matrix was contained in plastic pots with a surface area of 139.7 cm^2. When required to ensure good germination and healthy plants, a fungicide treatment and/or other chemical or physical treatment was applied. The plants were grown for 10-17 d in a greenhouse with an approximate 14-h photoperiod which was maintained at about 29° C. during the day and 26° C. during the night. Nutrients and water were added on a regular basis and supplemental lighting was provided with overhead metal halide 1000-Watt lamps as necessary. The plants were employed for testing when they reached the second or third true leaf stage. A weighed amount, determined by the highest rate to be tested, of each test compound was placed in 25 mL glass vials and dissolved in a volume of 97:3 v/v acetone-DMSO to obtain 12× stock solutions. […] The concentrated stock solutions were added to the spray solutions so that the final acetone and DMSO concentrations were 16.2% and 0.5%, respectively. Spray solutions were diluted to the appropriate final concentrations with the addition of 10 mL of an aqueous mixture of 1.5% (v/v) Agri-dex crop oil concentrate. The final spray solutions contained 1.25% (v/v) Agri-dex crop oil concentrate. Compound requirements are based upon a 12 mL application volume at a rate of 187 L/ha. Formulated compounds were applied to the plant material with an overhead Mandel track sprayer equipped with […] nozzles calibrated to deliver 187 L/ha over an application area of 0.503 square meters (m^2) at a spray height of 18 inches ([…]) above average plant canopy height. Control plants were sprayed in the same manner with the solvent blank. The treated plants and control plants were placed in a greenhouse as described above and watered by sub-irrigation to prevent wash-off of the test compounds. After 20-22 days, the condition of the test plants, compared with that of the untreated plants, was determined visually and scored on a scale of 0 to 100 percent where 0 corresponds to no injury and 100 corresponds to complete kill. By applying the well-accepted probit analysis as described by J. Berkson in […], 48, 565 (1953) and by D. Finney in “Probit Analysis” Cambridge University Press (1952), the above data can be used to calculate GR20, GR50, GR80 and GR90 values, which are defined as growth reduction factors that correspond to the effective dose of herbicide required to kill or control 20 percent, 50 percent, 80 percent or 90 percent, respectively, of a target plant.

[1] = tested on: LEFCH: Chinese sprangletop, Leptochloa chinensis
Text: as §1

[2] = tested on: ECHCG: barnyardgrass, Echinochloa crus-galli
Text: as §1

[3] = tested on: CYPDI: small-flower flatsedge, Cyperus difformis
Text: as §1

[4] = tested on: CYPES: yellow nutsedge, Cyperus esculentus
Text: as §1

[5] = tested on: CYPIR: rice flatsedge, Cyperus iria
Text: as §1

[6] = tested on: SCPJU: Japanese bulrush, Scirpus juncoides
Text: as §1

[7] = tested on: ECHCO: junglerice, Echinochloa colonum
Text: as §1

[8] = tested on: DIGSA: large crabgrass, Digitaria sanguinalis
Text: as §1

[9] = tested on: SEBEX: hemp sesbania, Sesbania exaltata
Text: as §1

[10] = tested on: BRAPP: broadleaf signalgrass, Brachiaria platyphylla
Text: as §1

ORYSK: Oryza sativa = tested on: ORYSK: Oryza sativa
Text: as §1

[11] = dose for 20 percent growth reduction, probit analysis
[12] = dose for 50 percent control, probit analysis
[13] = dose for 80 percent control, probit analysis
[14] = dose for 90 percent control, probit analysis

COC(=O)c1nc(-c2ccc3nsnc3c2)c(F)c(N)c1Cl [Compound 11] was tested, and the “Visual Growth Reduction (%) 21 Days After Application ORYSJ” value (ORYSJ: Oryza sativa; 17.5 g ai/ha) was “G (0-29)”, the “Visual Growth Reduction (%) 21 Days After Application ORYSJ” value (ORYSJ: Oryza sativa; 35 g ai/ha) was “G (0-29)” and the “Visual Growth Reduction (%) 21 Days After Application ORYSJ” value (ORYSJ: Oryza sativa; 70 g ai/ha) was “G (0-29)”. For the same molecule, the “GR20 ORYSJ” value (ORYSJ: Oryza sativa; [11]) was >70 g ai/ha, the “Visual Growth Reduction (%) 21 Days After Application LEFCH” value ([1]; 17.5 g ai/ha) was “G (0-29)” and the “Visual Growth Reduction (%) 21 Days After Application LEFCH” value ([1]; 35 g ai/ha) was “G (0-29)”. For the same molecule, the “Visual Growth Reduction (%) 21 Days After Application LEFCH” value ([1]; 70 g ai/ha) was “G (0-29)”, the “GR50 LEFCH” value [1, 12] was 114 g ai/ha and the “GR80 LEFCH” value [1, 13] was 186 g ai/ha. For the same molecule, the “GR90 LEFCH” value [1, 14] was 239 g ai/ha, the “Visual Growth Reduction (%) 21 Days After Application ECHCG” value ([2]; 17.5 g ai/ha) was “E (45-59)” and the “Visual Growth Reduction (%) 21 Days After Application ECHCG” value ([2]; 35 g ai/ha) was “C (75-84)”. The “Visual Growth Reduction (%) 21 Days After Application ECHCG” value ([2]; 70 g ai/ha) was “B (85-94)”, the “GR50 ECHCG” value [2, 12] was 6 g ai/ha and the “GR80 ECHCG” value [2, 13] was 37 g ai/ha. The “GR90 ECHCG” value [2, 14] was 98 g ai/ha, the “Visual Growth Reduction (%) 21 Days After Application CYPDI” value ([3]; 17.5 g ai/ha) was “A (95-100)” and the “Visual Growth Reduction (%) 21 Days After Application CYPDI” value ([3]; 35 g ai/ha) was “A (95-100)”. The “Visual Growth Reduction (%) 21 Days After Application CYPDI” value ([3]; 70 g ai/ha) was “A (95-100)”, the “GR50 CYPDI” value [3, 12] was 6 g ai/ha and the “GR80 CYPDI” value [3, 13] was 11 g ai/ha. For the same molecule, the “GR90 CYPDI” value [3, 14] was 16 g ai/ha, the “Visual Growth Reduction (%) 21 Days After Application CYPES” value ([4]; 17.5 g ai/ha) was “D (60-74)” and the “Visual Growth Reduction (%) 21 Days After Application CYPES” value ([4]; 35 g ai/ha) was “G (0-29)”. The “Visual Growth Reduction (%) 21 Days After Application CYPES” value ([4]; 70 g ai/ha) was “E (45-59)”, the “GR50 CYPES” value [4, 12] was >70 g ai/ha and the “GR80 CYPES” value [4, 13] was >70 g ai/ha. For the same molecule, the “GR90 CYPES” value [4, 14] was >70 g ai/ha, the “Visual Growth Reduction (%) 21 Days After Application CYPIR” value ([5]; 17.5 g ai/ha) was “G (0-29)” and the “Visual Growth Reduction (%) 21 Days After Application CYPIR” value ([5]; 35 g ai/ha) was “E (45-59)”. The “Visual Growth Reduction (%) 21 Days After Application CYPIR” value ([5]; 70 g ai/ha) was “F (30-44)”, the “GR50 CYPIR” value [5, 12] was 78 g ai/ha and the “GR80 CYPIR” value [5, 13] was 212 g ai/ha. For the same molecule, the “GR90 CYPIR” value [5, 14] was 357 g ai/ha, the “Visual Growth Reduction (%) 21 Days After Application SCPJU” value ([6]; 17.5 g ai/ha) was “A (95-100)” and the “Visual Growth Reduction (%) 21 Days After Application SCPJU” value ([6]; 35 g ai/ha) was “A (95-100)”. The “Visual Growth Reduction (%) 21 Days After Application SCPJU” value ([6]; 70 g ai/ha) was “A (95-100)”, the “GR50 SCPJU” value [6, 12] was 4 g ai/ha and the “GR80 SCPJU” value [6, 13] was 9 g ai/ha. For the same molecule, the “GR90 SCPJU” value [6, 14] was 14 g ai/ha, the “Visual Growth Reduction (%) 21 Days After Application ECHCO” value ([7]; 17.5 g ai/ha) was “E (45-59)” and the “Visual Growth Reduction (%) 21 Days After Application ECHCO” value ([7]; 35 g ai/ha) was “D (60-74)”. The “Visual Growth Reduction (%) 21 Days After Application ECHCO” value ([7]; 70 g ai/ha) was “C (75-84)”, the “GR50 ECHCO” value [7, 12] was 15 g ai/ha and the “GR80 ECHCO” value [7, 13] was 107 g ai/ha. For the same molecule, the “GR90 ECHCO” value [7, 14] was 300 g ai/ha, the “Visual Growth Reduction (%) 21 Days After Application DIGSA” value ([8]; 17.5 g ai/ha) was “E (45-59)” and the “Visual Growth Reduction (%) 21 Days After Application DIGSA” value ([8]; 35 g ai/ha) was “E (45-59)”. The “Visual Growth Reduction (%) 21 Days After Application DIGSA” value ([8]; 70 g ai/ha) was “D (60-74)”, the “GR50 DIGSA” value [8, 12] was 11 g ai/ha and the “GR80 DIGSA” value [8, 13] was 628 g ai/ha. For the same molecule, the “GR90 DIGSA” value [8, 14] was 5310 g ai/ha, the “Visual Growth Reduction (%) 21 Days After Application SEBEX” value ([9]; 17.5 g ai/ha) was “C (75-84)” and the “Visual Growth Reduction (%) 21 Days After Application SEBEX” value ([9]; 35 g ai/ha) was “A (95-100)”. The “Visual Growth Reduction (%) 21 Days After Application SEBEX” value ([9]; 70 g ai/ha) was “A (95-100)”, the “GR50 SEBEX” value [9, 12] was 4 g ai/ha and the “GR80 SEBEX” value [9, 13] was 11 g ai/ha. For the same molecule, the “GR90 SEBEX” value [9, 14] was 19 g ai/ha, the “Visual Growth Reduction (%) 21 Days After Application BRAPP” value ([10]; 17.5 g ai/ha) was “G (0-29)” and the “Visual Growth Reduction (%) 21 Days After Application BRAPP” value ([10]; 35 g ai/ha) was “G (0-29)”. For the same molecule, the “Visual Growth Reduction (%) 21 Days After Application BRAPP” value ([10]; 70 g ai/ha) was “E (45-59)”, the “GR50 BRAPP” value [10, 12] was >70 g ai/ha and the “GR80 BRAPP” value [10, 13] was >70 g ai/ha. The “GR90 BRAPP” value [10, 14] was >70 g ai/ha, the “Visual Growth Reduction (%) 21 Days After Application ORYSK” value (ORYSK: Oryza sativa; 17.5 g ai/ha) was “G (0-29)” and the “Visual Growth Reduction (%) 21 Days After Application ORYSK” value (ORYSK: Oryza sativa; 35 g ai/ha) was “G (0-29)”. For the same molecule, the “Visual Growth Reduction (%) 21 Days After Application ORYSK” value (ORYSK: Oryza sativa; 70 g ai/ha) was “G (0-29)” and the “GR20 ORYSK” value (ORYSK: Oryza sativa; [11]) was >70 g ai/ha.
